The text below walks through data of ChEMBL document CHEMBL5030526, “Synthesis and Preclinical Validation of Novel Indole Derivatives as a GPR17 Agonist for Glioblastoma Treatment” (J Med Chem, 2021).

Activity calls are given as the source filed them. No cut-off for these calls is given here.

The test system of series [1] is SNB-19. Nature of the series: Cytotoxicity effect against human SNB-19 cells assessed as cell growth inhibition incubated for 48 hrs by trypan blue exclusion assay. The class given is functional, cell-based. As to conditions: SNB-19, 48 h.
For series [2], the system named is SNB-19. The series is described as follows: Cytotoxicity against human SNB-19 cells assessed as cell growth inhibition at 100 uM incubated for 48 hrs by trypan blue exclusion assay. Type of series: functional. The conditions noted are these: read-out: GI.
Series [3] concerns the target T1, Uracil nucleotide/cysteinyl leukotriene receptor (Homo sapiens, UniProt Q13304). Nature of the series: Agonist activity at human GPR17 in human SNB-19 cells assessed as decrease in calcium ion levels incubated for 2 hrs by Calcium Fura 2 Dynamic assay.
A short description of series [4]: Cytotoxicity against mouse MEF cells assessed as cell growth inhibition at 100 uM incubated for 48 hrs by trypan blue exclusion assay. The class given is cell-based.
Series [5] has as its target T1, Uracil nucleotide/cysteinyl leukotriene receptor. Nature of the series: Agonist activity at human GPR17 in human LN-229 cells assessed as decrease in intracellular cAMP levels incubated for 2 hrs by cAMP Glo Dynamic assay. (Cyclic AMP is a second messenger, typically raised through Gs and lowered through Gi signalling.)
For series [6] the target is unchanged. The series is described as follows: Agonist activity at human GPR17 in human LN-229 cells assessed as decrease in calcium ion levels incubated for 2 hrs by Calcium Fura 2 Dynamic assay.
The subject of series [7] is LN-229. Nature of the series: Cytotoxicity effect against human LN-229 cells assessed as cell growth inhibition incubated for 48 hrs by trypan blue exclusion assay. The class given is functional, cell-based. The conditions noted are these: LN-229, 48 h.
In series [8] the test system is LN-229. The series is described as follows: Cytotoxicity against human LN229 cells assessed as cell growth inhibition at 100 uM incubated for 48 hrs by trypan blue exclusion assay. The class given is functional. As to conditions: read-out: GI.
Series [9] concerns LN-229. Nature of the series: Cytotoxicity against human LN-229 cells assessed as increase in cell death at 100 uM incubated for 48 hrs by trypan blue exclusion assay. Type of series: functional, cell-based.
The target in series [10] is T1, Uracil nucleotide/cysteinyl leukotriene receptor. Nature of the series: Inverse agonist at human GPR17 in human SNB-19 cells assessed as intracellular cAMP levels incubated for 2 hrs by cAMP Glo Dynamic assay.
The target is the same in series [11]. The series is described as follows: Inverse agonist at human GPR17 in human LN-229 cells assessed as intracellular cAMP levels incubated for 2 hrs by cAMP Glo Dynamic assay.

T1 sequence (Q13304 whole entry): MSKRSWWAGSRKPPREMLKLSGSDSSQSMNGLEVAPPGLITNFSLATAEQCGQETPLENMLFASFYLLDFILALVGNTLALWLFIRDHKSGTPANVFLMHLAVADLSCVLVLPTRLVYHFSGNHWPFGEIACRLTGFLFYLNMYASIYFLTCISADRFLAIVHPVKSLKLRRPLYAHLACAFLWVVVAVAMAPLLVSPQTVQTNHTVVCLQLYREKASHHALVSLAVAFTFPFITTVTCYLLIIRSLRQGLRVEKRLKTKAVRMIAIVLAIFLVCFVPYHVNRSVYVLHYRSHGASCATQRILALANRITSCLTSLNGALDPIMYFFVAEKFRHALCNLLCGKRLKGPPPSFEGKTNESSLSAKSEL

Usually IC50 stands for the concentration at which inhibition is half-maximal. The EC50 is the concentration that produces a half-maximal response. In general, inhibition refers to the change of the read-out against control, counted positive when it falls. `O=C(Nc1ccccc1)Oc1cc(OC(=O)Nc2ccccc2)c2c(c1)N(C(c1ccc(F)cc1)c1cccc(Cl)c1O)CC2` (stereo not given): the IC50 with SNB-19 [1] amounted to 85.5 µM; in the series with LN-229 [7], 85.3 µM. In addition, the inhibition of growth at 100 µM in the series with SNB-19 [2] is 37%; in the series on LN-229 [8], 50%. In addition, the EC50 in series [3] was determined as 7.67 µM; in [5], 59.6 µM; in [6], 41.9 µM. Moreover, the inhibition at 48 h, 100 µM in series [4] was below 5%. The outcome in the series with LN-229 [9] was Active.

As for `Cn1nnc2c(C(N)=O)ncn2c1=O` [TEMOZOLOMIDE], the IC50 turned out to be 69.9 µM in the series on SNB-19 [1] and 67.8 µM in the series with LN-229 [7].

Turning to `O=C(O)CCC1=C(C(=O)O)Cc2cc(Cl)cc(Cl)c21`, the EC50 was found to be 26.3 µM in [3], 26.9 µM in [6], 17.7 µM in series [10] and 16.6 µM in [11].
